Earlier results on four compounds are cited in US12364989B2, “High throughput method and system for analyzing the effects of agents on planaria” (priority 2019, dated 2025).

Molecules are shown by their SMILES.

The subject of data set [1] is planarians. Particulars: regenerating compared with intact animals.
Data set [2] deals with planaria.
Data set [3] relates to planaria. Particulars: Hagstrom et al., Toxicological Sciences 2015.

Regarding `C[S+](C)[O-]` [DMSO, Dimethyl sulfoxide], the “sensitivity of regenerating planarians” value in data set [1] is “increased sensitivity”.

For the compound `CN(C)C=O` [N,N-dimethylformamide], in data set [2] (morphological endpoint, Zhang et al., Toxicological and Industrial Health 2013), the “effect on auricle regeneration” value is reported as “effect”.

With `CCO` [ethanol], the “sensitivity of regenerating planarians” value in data set [1] was “increased sensitivity”.

For `CC1(C)C(C=C(Cl)Cl)C1C(=O)OCc1cccc(Oc2ccccc2)c1` (centres unmarked) [permethrin], in data set [2] (Hagstrom et al., Toxicological Sciences 2015), the eye reappearance entry is given as “did delay”. For the same compound, in data set [3], the blastema growth rate result was “did not affect”.
